pIC50: −log10 of the molar value. Where two headings read alike, the source gives them in different places.
Columns and labels:
[1] = Chemical stability by HPLC; conditions: HPLC after 24 h at 37° C.
in vivo = conditions: female, NIH-III nude, mouse, ip, pH 4
SKOV3 cells = assay: Cellular growth inhibition (sulforhodamine B); type: cell-based, Human; conditions: Table 9; for pIC50: Homo sapiens, SK-OV-3
[2] = Plasma and tissue pharmacokinetics of prodrug 42 in H1975 tumour bearing mice; type: in vivo; conditions: female, NIH-III, mouse, 20 umol/kg, single iv dose of 42 at 20 μmol/kg
Description: Compound 42 was dosed at a nominal low dose of 20 μmol/kg to nine female NIH-III mice bearing H1975 tumour xenografts, as a solution in DMSO/5% dextrose (20:80) via intravenous injection. […] The frozen powders were then collected in pre-weighed microcentrifuge tubes (kept on dry ice). Four volumes of ice cold acetonitrile (containing 0.5 μM D6-161 as an internal standard) was added to each sample to extract the drug from the tissue powder. […] To 10 μL of plasma (collected in EDTA) was added 40 μL of ice cold acetonitrile (containing 0.5 μM D6-161 as an internal standard). The resulting solution was mixed and then centrifuged at 13,000 rpm for 5 min.

H1975 cells = assay: Cellular growth inhibition (sulforhodamine B); type: cell-based, Human; conditions: Table 9; for pIC50: Homo sapiens, NCI-H1975
[3] = Plasma and A431 tumour pharmacokinetics of compounds 42 and 161
erbB2 [4] = biological target: T1, erbB2 (Homo sapiens, UniProt P04626); assay: Inhibition of basal phospho-erbB2 in SKOV3 cells (Western blot); type: cell-based; design: endogenous in cells; host or cells: SKOV3 human ovarian carcinoma cells; conditions: Table 8
T1 sequence (P04626 23-1255): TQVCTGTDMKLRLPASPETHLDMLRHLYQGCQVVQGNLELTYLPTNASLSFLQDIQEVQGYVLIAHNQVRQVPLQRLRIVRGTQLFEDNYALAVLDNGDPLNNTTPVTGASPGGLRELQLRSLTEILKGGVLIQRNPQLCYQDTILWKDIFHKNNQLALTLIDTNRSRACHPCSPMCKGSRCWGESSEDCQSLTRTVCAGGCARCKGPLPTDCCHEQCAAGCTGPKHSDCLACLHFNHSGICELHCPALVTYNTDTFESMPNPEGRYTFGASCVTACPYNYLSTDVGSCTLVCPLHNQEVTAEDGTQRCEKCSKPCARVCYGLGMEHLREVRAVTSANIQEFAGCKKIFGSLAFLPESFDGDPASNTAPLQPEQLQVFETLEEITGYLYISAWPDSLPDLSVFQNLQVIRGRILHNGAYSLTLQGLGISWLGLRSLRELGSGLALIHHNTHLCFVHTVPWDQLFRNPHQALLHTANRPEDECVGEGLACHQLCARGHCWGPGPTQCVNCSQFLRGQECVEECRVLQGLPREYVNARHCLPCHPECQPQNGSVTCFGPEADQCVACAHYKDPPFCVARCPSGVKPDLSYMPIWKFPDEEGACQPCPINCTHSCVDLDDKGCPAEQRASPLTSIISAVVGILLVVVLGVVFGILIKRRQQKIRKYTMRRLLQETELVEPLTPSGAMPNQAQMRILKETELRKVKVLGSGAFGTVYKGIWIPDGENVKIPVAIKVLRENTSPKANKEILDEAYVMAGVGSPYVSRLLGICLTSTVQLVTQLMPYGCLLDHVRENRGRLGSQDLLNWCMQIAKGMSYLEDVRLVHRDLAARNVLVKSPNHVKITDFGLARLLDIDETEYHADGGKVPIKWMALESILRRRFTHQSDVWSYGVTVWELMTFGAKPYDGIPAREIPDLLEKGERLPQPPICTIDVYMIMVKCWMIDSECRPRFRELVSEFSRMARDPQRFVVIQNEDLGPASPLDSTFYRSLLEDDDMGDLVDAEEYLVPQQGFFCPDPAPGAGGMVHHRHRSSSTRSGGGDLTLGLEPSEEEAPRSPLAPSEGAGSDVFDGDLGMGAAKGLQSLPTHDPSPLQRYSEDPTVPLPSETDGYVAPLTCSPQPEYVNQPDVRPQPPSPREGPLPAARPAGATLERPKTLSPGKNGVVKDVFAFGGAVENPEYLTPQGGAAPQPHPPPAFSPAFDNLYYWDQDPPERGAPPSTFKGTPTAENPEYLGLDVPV
Description: Values are plotted using SigmaPlot 10.

SKBR3 cells = assay: Cellular growth inhibition (sulforhodamine B); type: cell-based, Human; conditions: Table 3
Description: Human A431, BT474, SKBR3, SKOV3, SW620, H1975 and HT29 carcinoma cells in log phase exponential growth in alpha minimal essential media (αMEM) containing 5% fetal bovine serum (FBS), were harvested by trypsinisation (1× trypsin/EDTA, Gibco Brl), counted, and seeded into 96 well plates (Nunc) at cell densities ranging from 800-1500 cells/well. Half of the cell samples were seeded into plates that were pre-equilibrated and held in an anoxic environment (90% N2, 5% H2, 5% CO2, 37° Q Anaerobic chamber, Coy Laboratory Products). […] At the end of this period the anoxic plates were recovered from the anaerobic camber and held under normoxia in a standard CO2 incubator (37° C.) for 20 hours. All plates were washed free of compound and cells were allowed to proliferate for a further 4 days in αMEM containing 5% FBS+antibiotics. Cells were fixed in trichloroacteic acid (30 min), washed and stained with sulforhodamine B (SRB, 60 min) prior to washing in acidified water. SRB was solubilised and absorption read at 450 nm to calculate cell densities. Inhibition of proliferation was calculated relative to untreated control wells.

erbB2 [5] = biological target: T1, erbB2; assay: Isolated enzyme inhibition (Invitrogen Z′-LYTE kinase assay); type: biochemical; conditions: 10 μM ATP, duplicate
erbB4 = erbB4 (Homo sapiens, UniProt Q15303); assay: as above; type: biochemical; conditions: 10 μM ATP, duplicate
erbB4, sequence (Q15303 26-1308): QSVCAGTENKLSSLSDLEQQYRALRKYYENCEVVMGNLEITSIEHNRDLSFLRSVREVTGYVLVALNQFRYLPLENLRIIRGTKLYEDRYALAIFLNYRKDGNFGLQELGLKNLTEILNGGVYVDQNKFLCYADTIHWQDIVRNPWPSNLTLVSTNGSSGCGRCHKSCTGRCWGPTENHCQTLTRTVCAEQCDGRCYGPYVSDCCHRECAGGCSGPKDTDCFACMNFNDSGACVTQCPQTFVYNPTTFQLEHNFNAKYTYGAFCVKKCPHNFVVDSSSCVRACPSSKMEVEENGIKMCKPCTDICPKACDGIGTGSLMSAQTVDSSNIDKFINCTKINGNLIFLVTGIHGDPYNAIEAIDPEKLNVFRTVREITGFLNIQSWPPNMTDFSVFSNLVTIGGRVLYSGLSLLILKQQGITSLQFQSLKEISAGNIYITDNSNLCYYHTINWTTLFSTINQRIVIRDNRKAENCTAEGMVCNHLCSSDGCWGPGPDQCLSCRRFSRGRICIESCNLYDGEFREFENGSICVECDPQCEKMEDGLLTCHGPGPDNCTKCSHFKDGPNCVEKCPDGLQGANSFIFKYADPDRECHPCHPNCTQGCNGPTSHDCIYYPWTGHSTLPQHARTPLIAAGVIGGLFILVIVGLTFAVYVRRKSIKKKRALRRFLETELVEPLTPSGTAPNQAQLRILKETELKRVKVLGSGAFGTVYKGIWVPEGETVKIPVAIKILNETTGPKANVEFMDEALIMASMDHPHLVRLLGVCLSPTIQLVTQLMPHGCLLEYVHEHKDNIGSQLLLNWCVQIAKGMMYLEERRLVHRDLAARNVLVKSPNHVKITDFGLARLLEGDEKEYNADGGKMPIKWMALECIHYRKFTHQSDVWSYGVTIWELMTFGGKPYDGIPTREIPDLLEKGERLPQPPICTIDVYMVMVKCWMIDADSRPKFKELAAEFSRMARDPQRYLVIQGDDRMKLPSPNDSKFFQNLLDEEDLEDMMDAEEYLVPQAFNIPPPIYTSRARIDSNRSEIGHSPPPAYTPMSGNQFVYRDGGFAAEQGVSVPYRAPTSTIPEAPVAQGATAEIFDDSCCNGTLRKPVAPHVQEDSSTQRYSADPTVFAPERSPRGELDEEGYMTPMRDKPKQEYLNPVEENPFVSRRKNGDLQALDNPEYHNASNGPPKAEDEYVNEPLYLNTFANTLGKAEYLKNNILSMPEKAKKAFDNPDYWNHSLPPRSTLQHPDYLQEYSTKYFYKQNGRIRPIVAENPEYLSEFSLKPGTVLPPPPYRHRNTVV

[6] = Steady state radiolytic reduction by the CO2.− radical with HPLC-MS; type: physicochemical
Solubility by HPLC = conditions: α-MEM cell culture medium
[7] = Plasma and A431 tumour pharmacokinetics of compounds 11 and 20
Description: A small piece (˜100 mg) of tissue was placed in biopulveriser well (previously cooled in liquid nitrogen) and reduced to fine powder with a 2-3 strong blows to the stainless steel pestle. The frozen powder was collected in pre-weighed microcentrifuge tube (kept on dry ice). […] The microcentrifuge tubes were spun at 13,000 rpm for 10 min to precipitate the cell debris and proteins. […] The analytes were eluted using a gradient of 0.01% formic acid in acetonitrile (80%)-water (20%) mixture and 0.01% formic acid in water (100%) on Zorbax SB 018, rapid resolution HT 3.0×50 mm, 1.8 micron (Agilent) HPLC column with a flow rate of 0.6 ml/min.

erbB1 = erbB1 (Homo sapiens, UniProt P00533); assay: Cellular erbB1 inhibition: irreversibility wash-out assay in A431 cells; conditions: 1 μM, 1 hour exposure, then EGF stimulation
erbB1, sequence (P00533 25-1210): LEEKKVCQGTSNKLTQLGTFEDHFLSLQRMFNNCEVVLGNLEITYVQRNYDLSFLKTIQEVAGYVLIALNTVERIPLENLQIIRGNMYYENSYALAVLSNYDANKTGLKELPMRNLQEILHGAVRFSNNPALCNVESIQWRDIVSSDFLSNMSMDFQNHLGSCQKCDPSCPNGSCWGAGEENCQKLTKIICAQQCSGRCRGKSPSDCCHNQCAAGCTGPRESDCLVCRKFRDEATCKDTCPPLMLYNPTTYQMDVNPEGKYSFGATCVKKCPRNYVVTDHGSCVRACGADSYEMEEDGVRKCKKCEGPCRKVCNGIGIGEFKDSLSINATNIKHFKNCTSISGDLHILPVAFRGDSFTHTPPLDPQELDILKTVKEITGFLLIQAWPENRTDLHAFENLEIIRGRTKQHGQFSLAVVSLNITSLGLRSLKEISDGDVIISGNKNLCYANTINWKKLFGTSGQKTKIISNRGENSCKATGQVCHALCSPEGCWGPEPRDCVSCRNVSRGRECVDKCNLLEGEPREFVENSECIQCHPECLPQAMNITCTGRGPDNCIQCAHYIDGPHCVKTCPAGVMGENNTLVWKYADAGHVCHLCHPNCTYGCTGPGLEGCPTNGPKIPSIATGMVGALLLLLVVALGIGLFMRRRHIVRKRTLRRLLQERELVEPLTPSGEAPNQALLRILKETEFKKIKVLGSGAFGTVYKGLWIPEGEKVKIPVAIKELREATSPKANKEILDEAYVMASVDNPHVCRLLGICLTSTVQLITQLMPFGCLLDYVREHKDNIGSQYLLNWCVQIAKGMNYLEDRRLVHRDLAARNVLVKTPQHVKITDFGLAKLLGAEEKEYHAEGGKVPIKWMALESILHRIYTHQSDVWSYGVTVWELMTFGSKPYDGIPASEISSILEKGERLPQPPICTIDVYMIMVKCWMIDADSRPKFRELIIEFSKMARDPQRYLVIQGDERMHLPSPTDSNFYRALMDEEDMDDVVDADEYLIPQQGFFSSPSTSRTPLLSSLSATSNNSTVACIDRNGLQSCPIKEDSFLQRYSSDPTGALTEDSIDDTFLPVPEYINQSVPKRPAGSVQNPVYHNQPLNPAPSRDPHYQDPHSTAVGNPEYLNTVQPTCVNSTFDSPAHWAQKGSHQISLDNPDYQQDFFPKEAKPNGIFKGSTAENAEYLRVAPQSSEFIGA

[8] = Hypoxia-selective reduction of prodrug 20 in cell free media; type: in vitro ADME; conditions: cell free media containing 5% fetal calf serum, hypoxic
SW620 cells = assay: Cellular growth inhibition (sulforhodamine B); type: cell-based, Human; conditions: Table 3
[9] = HPLC-MS at 0.95 reducing equivalents
[10] = single ip dose of 20 at 133 umol/kg

Cn1cnc([N+](=O)[O-])c1C[N+](C)(C)C/C=C/C(=O)Nc1cc2c(Nc3ccc(F)c(Br)c3)ncnc2cn1 [Compound 42, (2E)-4-{[4-(3-bromo-4-fluoroanilino)pyrido[3,4-d]pyrimidin-6-yl]amino}-N,N-dimethyl-N-[(1-methyl-4-nitro-1H-imidazol-5-yl)methyl]-4-oxo-2-buten-1-ammonium bromide]
Stability PBS (percentage parent remaining) [1]: 77%
Stability Water (percentage parent remaining) [1]: 98%
Stability α-MEM + FCS (5%) (percentage parent remaining) [1]: 61%
MTD (in vivo): 133 µmol/kg
pIC50 (SKOV3 cells; 24 hour exposure oxic, read-out: Cellular Growth Inhibition IC50 SKOV3 Oxic): 4.45
pIC50 (SKOV3 cells; first 4 hours anoxic, read-out: Cellular Growth Inhibition IC50 SKOV3 Anoxic): 5.55
SKOV3 Deact. (SKOV3 cells): 42 fold
SKOV3 HCR (SKOV3 cells): 20.3 fold
solubility (physchem; aqueous buffer): 129 µM
solubility (physchem; water): > 1160 µM
AUC(0-t) ([2]; H1975 tumour, read-out: AUC0-24 hr H1975 Tumour, 42): 123 µM·h
AUC(0-t) ([2]; liver, read-out: AUC0-24 hr Liver, 42): 256 µM·h
AUC(0-t) ([2]; plasma, read-out: AUC0-24 hr Plasma, 42): 24.7 µM·h
AUC(0-t) ([2]; skin, read-out: AUC0-24 hr Skin, 42): 198 µM·h
pIC50 (H1975 cells; 24 hour exposure oxic, read-out: Cellular Growth Inhibition IC50 H1975 Oxic): 4.43
pIC50 (H1975 cells; first 4 hours anoxic, read-out: Cellular Growth Inhibition IC50 H1975 Anoxic): 5.37
H1975 Deact. (H1975 cells): 30 fold
H1975 HCR (H1975 cells): 10.8 fold
stable tumour tissue concentration ([3]; prodrug 42, out to 72 h): ~30 µmol/kg
tumour AUC0-72h ([3]; prodrug 42 at 100 umol/kg ip, A431 tumour): 2821 µmol·h/kg
plasma AUC fold greater than for administration of inhibitor 161 ([3]; ~75% of q3dx4 MTD each): ~27 fold
Deact. erbB2 (fold reduction in cellular inhibition relative to the parent kinase inhibitor) (erbB2 [4]; SKOV3 cells): 35 fold
pIC50 (erbB2 [4]; basal phospho-erbB2 in SKOV3 cells, read-out: Cellular Enzyme Inhibition IC50 erbB2): 6.67

Cn1cnc([N+](=O)[O-])c1C[N+](C)(C)C/C=C/C(=O)Nc1ccc2ncnc(Nc3cccc(Br)c3)c2c1.[Br-] [Compound 20, (2E)-4-{[4-(3-bromoanilino)-6-quinazolinyl]amino}-N,N-dimethyl-N-[(1-methyl-4-nitro-1H-imidazol-5-yl)methyl]-4-oxo-2-buten-1-ammonium bromide]
effector AUC as share of prodrug AUC (compound 11 in plasma after dosing prodrug 20): one
AUC0-250 min Effector (effector (compound 11) in plasma after dosing prodrug): 2.7 µM·h
AUC0-250 min Parent (plasma, IP, 42% of single dose MTD, predicted from modelled curves): 279 µM·h
SKBR3 Deact. (SKBR3 cells): 49 fold
SKBR3 HCR (SKBR3 cells): 18.1 fold
pIC50 (SKBR3 cells; 24 hour exposure entirely oxic, read-out: Cellular Growth Inhibition IC50 SKBR3 Oxic): 5.41
pIC50 (SKBR3 cells; first 4 hours anoxic, read-out: Cellular Growth Inhibition IC50 SKBR3 Anoxic): 6.66
pIC50 (erbB2 [5]): 6.95
pIC50 (erbB4): 7.07
Effector release/Prodrug loss ([6]; 0.95 reducing equivalents): 1.00
Detection of MNA (methyl nitroaromatic) ([6]; HPLC-MS): Yes
% Loss of prodrug [6, 9]: 55%
% Release of effector [6, 9]: 55%
release of effector following 1-electron reduction ([6]; steady state radiolysis, HPLC-MS): released effector (compound 11) detected
solubility (Solubility by HPLC): 1112 µM
stable tumour tissue concentration ([7]; prodrug 20, out to 72 h): ~30 µmol/kg
tumour AUC0-72h ([7]; prodrug 20 at 133 umol/kg ip, A431 tumour): 2245 µmol·h/kg
plasma AUC0-72h ([7]; prodrug 20 dosed at 133 umol/kg ip): 2016 µM·h
AUC0-72 hr A431 Tumour, Compound 20 [7, 10]: 2245 µM·h
AUC0-72 hr Plasma, Compound 20 [7, 10]: 2016 µM·h
erbB1 autophosphorylation, cells not washed free of drug (erbB1): not completely inhibited
rate of release of inhibitor 11 [8]: 62 pmol/h
SW620 Deact. (SW620 cells): 18 fold
SW620 HCR (SW620 cells): 3.1 fold
pIC50 (SW620 cells; 24 hour exposure entirely oxic, read-out: Cellular Growth Inhibition IC50 SW620 Oxic): 4.20
pIC50 (SW620 cells; first 4 hours anoxic, read-out: Cellular Growth Inhibition IC50 SW620 Anoxic): 4.69

Source: patent US9073916B2, “Prodrug forms of kinase inhibitors and their use in therapy” (AUCKLAND UNISERVICES LIMITED, priority 2009, dated 2015)
